Common to all, as to type: cell-based
The subject of one experiment is T-47D cells. Nature of the experiment: Inhibition of cell proliferation in T-47D cells (CCK-8). The conditions noted are these: 6 days treatment, CCK-8 cell viability. The method in brief: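 T-47D cells (3,000/well) in RPMI-1640 with 10% FBS were exposed to a concentration range of PROTAC compounds for 6 days at 37 °C, 5% CO2. Viability read by CCK-8; IC50 fitted from inhibition rate.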

Experiment [1] deals with T1, ERα (Homo sapiens, UniProt P03372).
T1 sequence (P03372 1-595): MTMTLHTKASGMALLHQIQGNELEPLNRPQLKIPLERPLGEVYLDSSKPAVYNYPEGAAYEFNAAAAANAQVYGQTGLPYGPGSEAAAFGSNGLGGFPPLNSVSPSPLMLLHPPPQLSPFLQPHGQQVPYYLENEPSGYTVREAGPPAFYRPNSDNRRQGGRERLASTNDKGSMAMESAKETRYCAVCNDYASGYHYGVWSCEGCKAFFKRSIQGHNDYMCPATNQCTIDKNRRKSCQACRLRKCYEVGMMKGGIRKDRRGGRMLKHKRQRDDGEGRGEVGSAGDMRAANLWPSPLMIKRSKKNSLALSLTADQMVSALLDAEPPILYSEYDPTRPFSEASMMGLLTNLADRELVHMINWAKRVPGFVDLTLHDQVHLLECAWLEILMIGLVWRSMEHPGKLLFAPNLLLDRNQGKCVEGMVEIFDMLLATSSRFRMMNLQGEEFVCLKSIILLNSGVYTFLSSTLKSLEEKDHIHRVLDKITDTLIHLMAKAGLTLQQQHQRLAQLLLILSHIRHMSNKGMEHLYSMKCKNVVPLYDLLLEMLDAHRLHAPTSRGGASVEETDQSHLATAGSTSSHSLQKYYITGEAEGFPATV
Nature of the experiment: ERα degradation in MCF-7 cells (Western blot). Also on record: host or cells: MCF-7. The conditions noted are these: 4 hours. The method in brief:
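MCF-7 cells treated 4 h at 37 °C with compound at 0.15–1000 nM final. ERα in lysates measured by Western blot (20 µg protein), normalized to an internal reference protein; degradation rate calculated against control.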
For orientation: In western blotting, separated proteins are transferred to a membrane and probed.

Experiment [2] has as its target T1, ERα. Nature of the experiment: ERα degradation in T-47D cells (Western blot). The following applies: 4 hours. The method in brief: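 T-47D cells at 3×10^5 cells/well were exposed to compound (final 0.15-1000 nM, DMSO) for 4 hours at 37°C and then lysed in RIPA. ERα was measured by Western blot (20 µg protein) with infrared imaging. The degradation rate was calculated from ERα/internal-reference grayscale ratios relative to control.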

In a further experiment the test system is MCF-7 cells. Nature of the experiment: Inhibition of cell proliferation in MCF-7 cells (CCK-8). The conditions noted are these: MCF-7 cell proliferation, 6 days treatment. The gist of the method: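 MCF-7 cells, 800 per well in DMEM plus 10% FBS, exposed to graded PROTAC concentrations for 6 days at 37 °C, 5% CO2. Viability by CCK-8; IC50 fitted from inhibition rates.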

Broadly, the IC50 is the concentration at which inhibition is half-maximal. A higher IC50 goes with weaker potency.

Consider `CN(C(=O)CN1CCC2(CC1)COc1c2ccc2c1n(C)c(=O)n2C1CCC(=O)NC1=O)C1CCC2(CC1)CN(c1ccc([C@@H]3c4ccc(O)cc4CC[C@@H]3c3ccccc3)cc1)C2` (stereo partly drawn) [ER-P-64, 2-(3-(2,6-dioxopiperidin-3-yl)-1-methyl-2-oxo-2,3-dihydro-1H,7H-spiro[benzofuro[6,7-d]imidazole-6,4'-piperidin]-1'-yl)-N-(2-(4-((1R,2S)-6-hydroxy-2-phenyl-1,2,3,4-tetrahydronaphthalen-1-yl)phenyl)-2-azaspiro[3.5]nonan-7-yl)-N-methylacetamide], for which the IC50 worked out at 1.5 nM with T-47D cells (Homo sapiens, T47D, 144 h) and 231 nM with MCF-7 cells (Homo sapiens, MCF7, 144 h). The “Degradation rate of ERα in MCF-7 cells (%)” value on ERα [1] (1nM) is listed as 46%; on ERα [1] (10nM) it was 57%. Besides, the entries for the “Degradation rate of ERα in T-47D cells (%)” value at ERα [2] (1nM) and on ERα [2] (10nM) were 56% and 80%, respectively.

On to `Cn1c(=O)n(C2CCC(=O)NC2=O)c2cc3c(cc21)OC1(CC3)CCN(C[C@H]2CC[C@@H](OC3CCN(c4ccc([C@@H]5c6ccc(O)cc6CC[C@@H]5c5ccccc5)cc4)CC3)CC2)CC1` (stereo partly drawn) [ER-P-65, 3-(1'-(((1S,4S)-4-((1-(4-((1R,2S)-6-hydroxy-2-phenyl-1,2,3,4-tetrahydronaphthalen-1-yl)phenyl)piperidin-4-yl)oxy)cyclohexyl)methyl)-3-methyl-2-oxo-2,3,7,8-tetrahydro-1H-spiro[benzopyrano[6,7-d]imidazole-6,4'-piperidin]-1-yl)piperidine-2,6-dione], for which the IC50 is 7.34 nM with T-47D cells (Homo sapiens, T47D, 144 h) and 261 nM with MCF-7 cells (Homo sapiens, MCF7, 144 h). For the same compound, the “Degradation rate of ERα in MCF-7 cells (%)” value at ERα [1] (1nM) is 21%; at ERα [1] (10nM) it was 62%. Besides, the “Degradation rate of ERα in T-47D cells (%)” value on ERα [2] (1nM) came out at 20%; on ERα [2] (10nM) it was 77%.

On to `Cn1c(=O)n(C2CCC(=O)NC2=O)c2ccc3c(c21)C1(CCN(C[C@H]2CC[C@@H](OC4CCN(c5ccc([C@@H]6c7ccc(O)cc7CC[C@@H]6c6ccccc6)cc5)CC4)CC2)CC1)CO3` (stereo partly drawn) [ER-P-66, 3-(1'-(((1S,4s)-4-((1-(4-((1R,2S)-6-hydroxy-2-phenyl-1,2,3,4-tetrahydronaphthalen-1-yl)phenyl)piperidin-4-yl)oxy)cyclohexyl)methyl)-1-methyl-2-oxo-1,2-dihydro-3H,7H-spiro[benzofuro[4,5-d]imidazole-8,4'-piperidin]-3-yl)piperidine-2,6-dione], for which the half-inhibitory concentration (IC50) in the experiment on T-47D cells (Homo sapiens, T47D, 144 h) is 14 nM; with MCF-7 cells (Homo sapiens, MCF7, 144 h), 4100 nM. Besides, the figures for the “Degradation rate of ERα in MCF-7 cells (%)” value at ERα [1] (1nM) and at ERα [1] (10nM) were 6% and 30%, respectively. Also, the “Degradation rate of ERα in T-47D cells (%)” value at ERα [2] (1nM) is 18%; on ERα [2] (10nM) it was 49%.

`O=C1CC[C@H](NC(=O)c2cc3c(cc2F)N2CCN(C[C@H]4CC[C@@H](OC5CCN(c6ccc([C@@H]7c8ccc(O)cc8CC[C@@H]7c7ccccc7)cc6)CC5)CC4)C[C@@H]2CO3)C(=O)N1` [ER-P-67, (R)-N-((S)-2,6-dioxopiperidin-3-yl)-9-fluoro-3-(((1S,4S)-4-((1-(4-((1R,2S)-6-hydroxy-2-phenyl-1,2,3,4-tetrahydronaphthalen-1-yl)phenyl)piperidin-4-yl)oxy)cyclohexyl)methyl)-1,2,3,4,4a,5-hexahydrobenzo[b]pyrazi no[1,2-d][1,4]oxazine-8-carboxamide]: the IC50 in the experiment with T-47D cells (Homo sapiens, T47D, 144 h) came to 92.5 nM; in the experiment on MCF-7 cells (Homo sapiens, MCF7, 144 h), 2990 nM. Moreover, the results for the “Degradation rate of ERα in MCF-7 cells (%)” value on ERα [1] (1nM) and on ERα [1] (10nM) were 28% and 13%, respectively. Moreover, the “Degradation rate of ERα in T-47D cells (%)” value amounted to 6% at ERα [2] (1nM) and 20% at ERα [2] (10nM).

Take “(S)-N-((S)-2,6-dioxopiperidin-3-yl)-3-(((1S,4R)-4-((1-(4-((1R,2S)-6-hydroxy-2-phenyl-1,2,3,4-tetrahydronaphthalen-1-yl)phenyl)piperidin-4-yl)oxy)cyclohexyl)methy l)-1,2,3,4,4a,5-hexahydrobenzo[b]pyrazi no[1,2-d][1,4]oxazine-8-carboxamide [ER-P-47]”: the results for the IC50 in the experiment with T-47D cells and in the experiment with MCF-7 cells were 1.47 nM and 8430 nM, respectively. Also, the “Degradation rate of ERα in MCF-7 cells (%)” value came to 21% at ERα [1] (1nM) and 26% on ERα [1] (10nM). Also, the “Degradation rate of ERα in T-47D cells (%)” value is given as -14% at ERα [2] (1nM) and 25% on ERα [2] (10nM).

The values above are taken from EP4722219A1 (Gan & Lee Pharmaceuticals Co., Ltd., priority 2023, dated 2024).
